PubChem BioAssay AID314 (DTP/NCI, 2004)
Values joined by “and” are separate entries in the source; they are usually repeats but may differ in a detail not shown here. Equal values may be shown once. Toxic doses and inconclusive results are not listed.

Test system: DBA/2 mice, P1534 leukemia ip, survival T/C
Test: NCI In Vivo Anticancer Drug Screen. Data for tumor model P1534 Leukemia (intraperitoneal) in DBA/2 mice
Details: endpoint: mean survival time, higher = longer survival
Experimental: The antitumor activity of compounds was measured in mice bearing transplantable tumors. Survival or tumor size were measured and the results are expressed as the measurement made in the treated group (T) divided by the measurement made in the vehicle treated control group (C). The tumor model used in this assay is P1534 Leukemia (intraperitoneal) in DBA/2 mice

[1] = dose: 31.3 mg/kg/injection, schedule: Q01DX010 (ip), vehicle: saline
[2] = dose: 62.5 mg/kg/injection, schedule: Q01DX010 (ip), vehicle: saline
[3] = dose: 125.0 mg/kg/injection, schedule: Q01DX010 (ip), vehicle: saline
[4] = dose: 0.5 mg/kg/injection, schedule: Q01DX010 (ip), vehicle: saline
[5] = dose: 1.0 mg/kg/injection, schedule: Q01DX010 (ip), vehicle: saline
[6] = dose: 3.13 mg/kg/injection, schedule: Q01DX010 (ip), vehicle: saline
[7] = dose: 6.25 mg/kg/injection, schedule: Q01DX010 (ip), vehicle: saline
[8] = dose: 5.0 mg/kg/injection, schedule: Q01DX010 (ip), vehicle: saline
[9] = dose: 10.0 mg/kg/injection, schedule: Q01DX010 (ip), vehicle: saline
[10] = dose: 250.0 mg/kg/injection, schedule: Q01DX010 (ip), vehicle: saline
[11] = dose: 0.13 mg/kg/injection, schedule: Q01DX010 (ip), vehicle: saline
[12] = dose: 0.25 mg/kg/injection, schedule: Q01DX010 (ip), vehicle: saline
[13] = dose: 8.0 mg/kg/injection, schedule: Q01DX010 (ip), vehicle: saline
[14] = dose: 16.0 mg/kg/injection, schedule: Q01DX010 (ip), vehicle: saline
[15] = dose: 32.0 mg/kg/injection, schedule: Q01DX010 (ip), vehicle: saline
[16] = dose: 64.0 mg/kg/injection, schedule: Q01DX010 (ip), vehicle: saline
[17] = dose: 2.0 mg/kg/injection, schedule: Q01DX010 (ip), vehicle: saline

## CS(=O)(=O)OCCCl
dose: 18.8 mg/kg/injection, schedule: Q01DX010 (ip), vehicle: saline
  T/C: 89 % of control
dose: 37.5 mg/kg/injection, schedule: Q01DX010 (ip), vehicle: saline
  T/C: 100 % of control
dose: 75.0 mg/kg/injection, schedule: Q01DX010 (ip), vehicle: saline
  T/C: 92 % of control

## O=CN(O)CC(=O)O
dose: 15.6 mg/kg/injection, schedule: Q01DX010 (ip), vehicle: saline
  T/C: 93 % of control
[1]
  T/C: 93 % of control
[2]
  T/C: 96 % of control
[3]
  T/C: 93 % of control

## C[C@]12CC[C@H](OC3OC(CO)C(O)C(O)C3O)C[C@H]1CC[C@@H]1[C@@H]2CC[C@]2(C)[C@@H](C3=CCOC3=O)CC[C@]12O (stereo partly specified)
[4]
  T/C: 100 % of control
[5]
  T/C: 91 % of control

## C/C=C1\CN(C=O)C2CC3c4ccccc4NC3C(=O)CC1C2C(=O)OC (stereo unspecified)
[6]
  T/C: 100 % of control
[7]
  T/C: 100 % of control
dose: 12.5 mg/kg/injection, schedule: Q01DX010 (ip), vehicle: saline
  T/C: 100 % of control
dose: 25.0 mg/kg/injection, schedule: Q01DX010 (ip), vehicle: saline
  T/C: 100 % of control

## CC[n+]1c(-c2ccccc2)c2cc(N)ccc2c2ccc(N)cc21
[8]
  T/C: 113 % of control
[9]
  T/C: 120 % of control

## N=C(N)N
dose: 100.0 mg/kg/injection, schedule: Q01DX010 (ip), vehicle: saline
  T/C: 100 % of control
dose: 150.0 mg/kg/injection, schedule: Q01DX010 (ip), vehicle: saline
  T/C: 100 % of control
dose: 215.0 mg/kg/injection, schedule: Q01DX010 (ip), vehicle: saline
  T/C: 100 % of control

## CC(C)(C)CC(C)(C)c1ccc(O)cc1
[2]
  T/C: 100 % of control
[3]
  T/C: 100 % of control
[10]
  T/C: 107 % of control
dose: 500.0 mg/kg/injection, schedule: Q01DX010 (ip), vehicle: saline
  T/C: 111 % of control

## CN1CCCC1c1cccnc1 (stereo unspecified)
[11]
  T/C: 100 % of control
[12]
  T/C: 100 % of control
[4]
  T/C: 100 % of control
[5]
  T/C: 100 % of control

## CC(=O)c1cccc(NC2C(N)C(NC(=O)N(C)C)(C(C)O)C(C)(O)C2(O)COC(=O)c2c(C)cccc2O)c1 (stereo unspecified)
[12]
  T/C: 90 % of control

## COc1cc2c(c(OC)c1OC)-c1ccc(OC)c(=O)cc1[C@@H](NC(C)=O)CC2
dose: 0.01 mg/kg/injection, schedule: Q01DX010 (ip), vehicle: saline
  T/C: 107 % of control
dose: 0.02 mg/kg/injection, schedule: Q01DX010 (ip), vehicle: saline
  T/C: 110 % of control
dose: 0.04 mg/kg/injection, schedule: Q01DX010 (ip), vehicle: saline
  T/C: 114 % of control
dose: 0.08 mg/kg/injection, schedule: Q01DX010 (ip), vehicle: saline
  T/C: 121 % of control

## NCCCCCCNC(=O)CCCCC(=O)NCCCCCCN
[13]
  T/C: 100 % of control
[14]
  T/C: 100 % of control
[15]
  T/C: 95 % of control
[16]
  T/C: 95 % of control

## CN(C)c1ccc(/C=C/c2ccnc3ccccc23)cc1
[8]
  T/C: 100 % of control and 108 % of control
[9]
  T/C: 100 % of control
dose: 20.0 mg/kg/injection, schedule: Q01DX010 (ip), vehicle: saline
  T/C: 100 % of control and 108 % of control
dose: 40.0 mg/kg/injection, schedule: Q01DX010 (ip), vehicle: saline
  T/C: 100 % of control

## C[C@]12CCC(=O)C[C@H]1CC[C@@H]1[C@@H]2CC[C@@]2(C)[C@H]1CC[C@]2(C)O
dose: 50.0 mg/kg/injection, schedule: Q01DX010 (sc), vehicle: saline
  T/C: 104 % of control
dose: 100.0 mg/kg/injection, schedule: Q01DX010 (sc), vehicle: saline
  T/C: 100 % of control
dose: 200.0 mg/kg/injection, schedule: Q01DX010 (sc), vehicle: saline
  T/C: 100 % of control
dose: 400.0 mg/kg/injection, schedule: Q01DX010 (sc), vehicle: saline
  T/C: 108 % of control

## CO[C@H]1C[C@H](O[C@H]2CC[C@]3(C=O)[C@H]4CC[C@]5(C)[C@@H](C6=CC(=O)OC6)CC[C@]5(O)[C@@H]4CC[C@]3(O)C2)O[C@H](C)[C@H]1O
dose: 1.25 mg/kg/injection, schedule: Q01DX010 (sc), vehicle: saline
  T/C: 92 % of control
dose: 2.5 mg/kg/injection, schedule: Q01DX010 (sc), vehicle: saline
  T/C: 103 % of control
dose: 5.0 mg/kg/injection, schedule: Q01DX010 (sc), vehicle: saline
  T/C: 92 % of control
dose: 10.0 mg/kg/injection, schedule: Q01DX010 (sc), vehicle: saline
  T/C: 89 % of control

## O[C@H](CN1CC1)[C@@H](O)CN1CC1
[11]
  T/C: 88 % of control
[12]
  T/C: 96 % of control

## O=C1CCC(N2C(=O)c3ccccc3C2=O)C(=O)N1 (stereo unspecified)
[1]
  T/C: 100 % of control
[2]
  T/C: 96 % of control
[3]
  T/C: 96 % of control
[10]
  T/C: 96 % of control

## CCOC(C)C(/C=N/NC(N)=S)=NNC(N)=S (stereo unspecified)
dose: 15.0 mg/kg/injection, schedule: Q01DX010 (ip), vehicle: saline
  T/C: 91 % of control
dose: 30.0 mg/kg/injection, schedule: Q01DX010 (ip), vehicle: saline
  T/C: 100 % of control
dose: 60.0 mg/kg/injection, schedule: Q01DX010 (ip), vehicle: saline
  T/C: 100 % of control
dose: 120.0 mg/kg/injection, schedule: Q01DX010 (ip), vehicle: saline
  T/C: 95 % of control

## N[C@@H](Cc1ccc(N(CCCl)CCCl)cc1)C(=O)O
[4]
  T/C: 119 % of control and 123 % of control
dose: 1.0 mg/kg/injection, schedule: Q01DX010 (ip), vehicle: other
  T/C: 88 % of control
[5]
  T/C: 119 % of control and 123 % of control
[17]
  T/C: 161 % of control

## CC(=O)Nc1ccc2nc3ccc(NC(C)=O)cc3[n+](-c3ccccc3)c2c1
[1]
  T/C: 100 % of control
[2]
  T/C: 103 % of control
[10]
  T/C: 88 % of control

## CCOC(=O)NP(=O)(N1CC1(C)C)N1CC1(C)C (stereo unspecified)
[1]
  T/C: 107 % of control
[2]
  T/C: 92 % of control
[3]
  T/C: 103 % of control

## Clc1ccc(C(c2ccccc2Cl)C(Cl)Cl)cc1 (stereo unspecified)
dose: 62.5 mg/kg/injection, schedule: Q01DX010 (sc), vehicle: steriod suspending solution
  T/C: 100 % of control
dose: 125.0 mg/kg/injection, schedule: Q01DX010 (sc), vehicle: steriod suspending solution
  T/C: 100 % of control
dose: 250.0 mg/kg/injection, schedule: Q01DX010 (sc), vehicle: steriod suspending solution
  T/C: 96 % of control and 100 % of control
dose: 500.0 mg/kg/injection, schedule: Q01DX010 (sc), vehicle: steriod suspending solution
  T/C: 100 % of control

## NCCCCCCNC(=O)CCC(=O)NCCCCCCN
[14]
  T/C: 95 % of control
[16]
  T/C: 91 % of control

## O=NN(CCCl)C(=O)NCCCl
dose: 1.57 mg/kg/injection, schedule: Q01DX010 (ip), vehicle: saline
  T/C: 100 % of control and 103 % of control
[6]
  T/C: 103 % of control and 111 % of control
[7]
  T/C: 100 % of control

## NC(=O)N(CCCl)N=O
[4]
  T/C: 100 % of control
[5]
  T/C: 100 % of control
[17]
  T/C: 86 % of control

## O=C(O)c1[nH]c(=O)[nH]c(=O)c1F
dose: 1.25 mg/kg/injection, schedule: Q01DX010 (ip), vehicle: saline
  T/C: 86 % of control

## COc1cc([C@@H]2c3cc4c(c(O)c3C[C@H]3COC(=O)[C@@H]32)OCO4)cc(OC)c1OC
dose: 39.0 micrograms/kg/injection, schedule: Q01DX010 (ip), vehicle: saline
  T/C: 100 % of control
dose: 78.0 micrograms/kg/injection, schedule: Q01DX010 (ip), vehicle: saline
  T/C: 103 % of control
dose: 156.0 micrograms/kg/injection, schedule: Q01DX010 (ip), vehicle: saline
  T/C: 90 % of control

## O=C(Nc1ccc(C2=NCCN2)cc1)c1cccc(C(=O)Nc2ccc(C3=NCCN3)cc2)c1
[13]
  T/C: 163 % of control
[14]
  T/C: 177 % of control
[15]
  T/C: 240 % of control
[16]
  T/C: 290 % of control

## CO[C@@]12[C@H](COC(N)=O)C3=C(C(=O)C(C)=C(N)C3=O)N1C[C@@H]1N[C@@H]12
[12]
  T/C: 92 % of control
[4]
  T/C: 111 % of control
[5]
  T/C: 103 % of control
[17]
  T/C: 92 % of control
